Measured values as given in patent publication US20150252048A1, “SUBSTITUTED N-(3-PYRIMIDIN-4-YL)PHENYL)ACRYLAMIDE ANALOGS AS TYROSINE RECEPTOR KINASE BTK INHIBITORS” (UNIVERSITY OF UTAH RESEARCH FOUNDATION, priority 2012, published 2015).
Where two headings read alike, the source gives them in different places.

Experiments:
Assay in all cases: Cytochrome P450 inhibition (P450 BACULOSOMES, Vivid substrates)
Assay type in all cases: in vitro ADME
Cytochrome P450 2D6 = target: T1, Cytochrome P450 2D6 (Homo sapiens, UniProt P10635); details: 10-point titration, duplicate; read-out: CYP Activity 2D6 IC50
T1 construct: purchased Invitrogen
Experimental: (§1) A number of ADME properties were determined for a representative disclosed compound, compound 3 (N-(3-(6-((3-morpholinophenyl)amino)-1H-pyrazolo[3,4-d]pyrimidin-4-yl)phenyl)acrylamide), which corresponds to compound 3 in Table I. Drug inhibition of cytochrome P450 enzymes is a common cause of drug-drug intereaction issues in the clinic. The compound was tested in assays for commonly screened Cytochrome P450s, specifically the 1A2, 2C9, 2C19, 2D6, and 3A4 isoforms. The IC50 determinations were performed in duplicate using 10-point titrations of test compound using Invitrogen P450 BACULOSOMES® reagents and Vivid® CyP450 Screening substrates.

Cytochrome P450 1A2 = target: T2, Cytochrome P450 1A2 (Homo sapiens, UniProt P05177); details: 10-point titration, duplicate; read-out: CYP Activity 1A2 IC50
T2 construct: purchased Invitrogen
T2 sequence (P05177 1-516): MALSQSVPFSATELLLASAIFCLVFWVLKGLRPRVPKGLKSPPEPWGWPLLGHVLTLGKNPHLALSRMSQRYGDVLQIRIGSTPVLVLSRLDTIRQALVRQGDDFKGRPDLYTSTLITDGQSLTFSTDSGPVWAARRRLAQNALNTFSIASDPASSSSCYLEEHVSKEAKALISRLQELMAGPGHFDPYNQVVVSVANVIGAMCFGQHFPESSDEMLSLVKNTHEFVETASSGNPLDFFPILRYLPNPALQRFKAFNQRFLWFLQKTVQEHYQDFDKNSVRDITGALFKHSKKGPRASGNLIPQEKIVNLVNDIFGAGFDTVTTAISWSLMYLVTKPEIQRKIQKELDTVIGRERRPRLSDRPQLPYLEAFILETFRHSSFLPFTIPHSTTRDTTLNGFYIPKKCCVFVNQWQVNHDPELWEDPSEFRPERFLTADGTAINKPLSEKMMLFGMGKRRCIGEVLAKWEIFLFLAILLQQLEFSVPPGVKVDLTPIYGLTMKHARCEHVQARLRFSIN
Experimental: as §1

Cytochrome P450 2C9 = target: T3, Cytochrome P450 2C9 (Homo sapiens, UniProt P11712); details: 10-point titration, duplicate; read-out: CYP Activity 2C9 IC50
T3 construct: purchased Invitrogen
Experimental: as §1

Cytochrome P450 2C19 = target: T4, Cytochrome P450 2C19 (Homo sapiens, UniProt P33261); details: 10-point titration, duplicate; read-out: CYP Activity 2C19 IC50
T4 construct: purchased Invitrogen
Experimental: as §1

Cytochrome P450 3A4 = target: T5, Cytochrome P450 3A4 (Homo sapiens, UniProt P08684)
T5 construct: purchased Invitrogen
Experimental: as §1

T5 sequence (P08684 whole entry): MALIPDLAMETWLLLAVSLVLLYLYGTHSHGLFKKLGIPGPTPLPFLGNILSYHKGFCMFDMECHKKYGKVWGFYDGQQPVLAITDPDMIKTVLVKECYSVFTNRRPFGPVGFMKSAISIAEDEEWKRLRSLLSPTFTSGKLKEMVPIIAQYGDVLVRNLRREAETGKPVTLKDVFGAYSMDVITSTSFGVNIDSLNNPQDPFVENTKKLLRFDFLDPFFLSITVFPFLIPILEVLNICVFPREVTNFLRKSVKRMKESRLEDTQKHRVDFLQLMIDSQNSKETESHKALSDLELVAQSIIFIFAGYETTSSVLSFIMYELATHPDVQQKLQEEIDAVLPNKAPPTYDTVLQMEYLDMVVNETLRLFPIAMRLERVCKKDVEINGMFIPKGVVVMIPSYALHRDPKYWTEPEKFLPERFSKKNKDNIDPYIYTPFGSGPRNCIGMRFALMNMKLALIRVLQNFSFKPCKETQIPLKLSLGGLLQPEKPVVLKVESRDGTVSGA
T1 sequence (P10635 whole entry): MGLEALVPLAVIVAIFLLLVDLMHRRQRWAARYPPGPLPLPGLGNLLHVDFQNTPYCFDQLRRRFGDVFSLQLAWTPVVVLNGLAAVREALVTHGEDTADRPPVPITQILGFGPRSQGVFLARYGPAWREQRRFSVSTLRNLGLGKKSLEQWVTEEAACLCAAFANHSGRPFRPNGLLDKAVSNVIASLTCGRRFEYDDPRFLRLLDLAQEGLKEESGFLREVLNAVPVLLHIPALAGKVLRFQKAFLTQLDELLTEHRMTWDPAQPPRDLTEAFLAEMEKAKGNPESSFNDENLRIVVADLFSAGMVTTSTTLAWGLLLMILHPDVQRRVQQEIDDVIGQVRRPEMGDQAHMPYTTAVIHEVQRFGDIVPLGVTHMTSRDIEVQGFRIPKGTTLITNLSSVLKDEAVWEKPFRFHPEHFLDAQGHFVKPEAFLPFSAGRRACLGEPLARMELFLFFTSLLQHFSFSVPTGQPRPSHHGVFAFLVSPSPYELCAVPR
T4 sequence (P33261 whole entry): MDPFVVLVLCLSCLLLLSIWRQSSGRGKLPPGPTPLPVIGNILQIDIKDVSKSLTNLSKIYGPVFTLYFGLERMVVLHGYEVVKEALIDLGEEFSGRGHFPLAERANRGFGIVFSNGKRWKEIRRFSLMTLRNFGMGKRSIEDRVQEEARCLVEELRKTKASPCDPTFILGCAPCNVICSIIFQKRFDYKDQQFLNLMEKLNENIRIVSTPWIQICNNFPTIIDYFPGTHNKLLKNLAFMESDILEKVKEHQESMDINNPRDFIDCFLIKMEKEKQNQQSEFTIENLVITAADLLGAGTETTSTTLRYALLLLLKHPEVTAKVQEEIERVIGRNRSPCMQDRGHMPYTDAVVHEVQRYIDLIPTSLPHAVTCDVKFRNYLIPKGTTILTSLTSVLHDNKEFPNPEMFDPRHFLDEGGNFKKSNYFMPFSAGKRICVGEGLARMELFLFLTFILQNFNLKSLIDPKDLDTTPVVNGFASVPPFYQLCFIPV
T3 sequence (P11712 whole entry): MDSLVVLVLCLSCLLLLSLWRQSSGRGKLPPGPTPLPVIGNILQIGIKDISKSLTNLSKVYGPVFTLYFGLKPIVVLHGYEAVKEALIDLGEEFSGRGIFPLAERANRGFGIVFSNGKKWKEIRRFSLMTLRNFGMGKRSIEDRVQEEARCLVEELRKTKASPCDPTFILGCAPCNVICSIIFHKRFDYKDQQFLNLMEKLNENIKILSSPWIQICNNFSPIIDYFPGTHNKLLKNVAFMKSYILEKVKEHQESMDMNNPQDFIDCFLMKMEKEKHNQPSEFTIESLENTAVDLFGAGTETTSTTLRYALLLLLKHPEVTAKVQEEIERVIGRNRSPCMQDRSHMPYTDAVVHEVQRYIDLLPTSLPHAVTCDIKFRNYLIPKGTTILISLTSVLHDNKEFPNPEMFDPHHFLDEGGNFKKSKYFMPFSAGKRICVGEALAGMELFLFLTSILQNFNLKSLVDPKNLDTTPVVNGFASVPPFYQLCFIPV

Structure (SMILES): C=CC(=O)Nc1cccc(-c2nc(Nc3cccc(N4CCOCC4)c3)nc3[nH]ncc23)c1 [Compound 3, N-(3-(6-((3-morpholinophenyl)amino)-1H-pyrazolo[3,4-d]pyrimidin-4-yl)phenyl)acrylamide]
- IC50 (Cytochrome P450 2D6): ≥ 10000 nM
- IC50 (Cytochrome P450 1A2): ≥ 10000 nM
- IC50 (Cytochrome P450 2C9): 2170 nM
- IC50 (Cytochrome P450 2C19): 2630 nM
- IC50 (Cytochrome P450 3A4; BOMCC substrate, read-out: CYP Activity 3A4/BOMCC IC50): 670 nM
- IC50 (Cytochrome P450 3A4; DBOMF substrate, read-out: CYP Activity 3A4/DBOMF IC50): 2050 nM
